Patent US20220235006A1, “PYRIDINE DERIVATIVES AS TMEM16A MODULATORS FOR USE IN THE TREATMENT OF RESPIRATORY CONDITIONS” (TMEM16A LIMITED, priority 2019, published 2022)

Key:
[1] = Caco-2 permeability assay; type: in vitro ADME; conditions: human, Caco-2, pH 7.4; for efflux ratio at 2 h, 10 μM: B-A/A-B; for Papp B→A at 2 h, 10 μM: basolateral to apical, pH7.4
Experimental: Caco2 permeability data provides a measure of a compound's permeability, and its potential for efflux by P-glycoprotein. […] This assay therefore provides an indication of which compounds are likely to be suitable for oral administration.
Caco-2 cells were purchased from ATCC and passaged to create a bank of cells. Cells were not used post 20 passages.
All test and reference compounds (metoprolol (passive permeability) and atenolol (pgp substrate)) were formulated in DMSO to 20 mM.
96-well plates were seeded with 9×10^3 Caco-2 cells/well in DMEM, 10% FBS, 1% NEAA, 1% pen/strep and maintained at 37° C., in a highly humidified atmosphere of 95% air and 5% CO2. Plates were ready for use on day 21.
10 mM DMSO stock test compounds were diluted to 1 mM in DMSO. Two replicates of each test compound were included in every assay. Final concentration of donor solution was 10 μM.
Assay transport buffer (25 mM HEPES/Hanks Balanced Salt Solution (HBSS), pH7.4) was prepared to wash the cells, create lucifer yellow (LY) stock solutions, receiver solutions and blanks for the transport assay. Final concentration of LY was 10 μM. Basolateral wells were treated with 250 μL of 10 μM dosing drug solution or 250 μL Transport Buffer. Apical wells were treated with 75 μL drug dosing solution or 75 μL Transport Buffer. The two plates were sandwiched together and cells were incubated with test compounds for 2 hours, shaking at 50 rpm, 37° C., 0% CO2.
A calibration curve was prepared for each compound; DMSO stock solutions were serially diluted from 300 μM to 100 μM, 30 μM, 10 μM, 3 μM, 1 μM and 0.3 μM in DMSO. 2 μL of each concentration was diluted into 198 μL of Sample Quench Solution (50% acetonitrile containing 500 nM tolbutamide). 50 μL of each calibration solution was then diluted in 50 μL Dosing Buffer (modified HBSS containing LY). Finally this plate was diluted 1:10 using a Janus robot in Robot Dilution Quench Solution (35% acetonitrile containing 250 nM tolbutamide).
Following a 2 h incubation, 50 μL of sample was removed from each well (apical and basolateral) and added to the T2 sample plate. Lucifer Yellow fluorescence was analysed using Spectrafluor Plus featuring the XFluor software to determine membrane integrity.
Following the fluorescence plate read, 50 μL Sample Quench Solution was then added to the T2 sample plate. Plates were diluted 1:10 and/or 1:100 into opaque 384-well plates using a Janus Robot. 1:100 dilution transfers were created sequentially directly from 1:10 dilutions. All dilutions were created using Robot Dilution Quench Solution (35% acetonitrile containing 250 nM tolbutamide). All samples were analysed by LC-MS/MS.

[2] = Log D (pH7.4 shake flask); type: physicochemical; conditions: pH 7.4; 1-octanol/phosphate buffer shake flask; read-out: mLogD (pH 7.4)
Microsomal stability = type: in vitro ADME; conditions: human microsomes 0.5 mg/mL; 1 μM; 1 mM NADPH
Experimental: Microsomes (human) were obtained from Bioreclamation.
All Test and reference control compounds (raloxifene, diclofenac, terfenadine, propranolol, dextromethorphan and metoprolol) were dissolved to create a 100 μM stock (final concentrations; 91.5% Acetonitrile: 8.5% DMSO). Final test compound concentration in incubation was 1 μM (<0.1% DMSO).
Solution 1: 17.4 g potassium phosphate dibasic anhydrous (K2HPO4, 0.1 M) dissolved in 1 L deionised water. Solution 2: 13.6 g potassium phosphate monobasic anhydrous (KH2PO4, 0.1 M) dissolved in 1 L deionised water. pH7.4 with 2 mM magnesium chloride. NADPH (10 mM) is prepared in deionised water.
Microsomes (all species) were removed from the −80° C. thawed at 37° C. Microsomes were diluted in assay buffer to achieve a final protein concentration of 0.5 mg/mL and 1 mM NADPH.
The following procedure was completed on a Perkin Elmer Janus robotic platform in 96 well format: The microsomal incubation plate was transferred to a heater shaker at 300 rpm and solution heated to 37° C. for 10 min pre-warm. A no co-factor control at 0 and 45 min and one replicates of each test compound was included in every assay. Microsomes were incubated at 37° C., on a shaker set at 300 rpm throughout the assay. […] Samples were diluted 1:1 with water using the Janus Robot and analysed by […]

[3] = Parallel artificial membrane permeability assay (PAMPA); type: in vitro ADME; conditions: 200 μM, 16 hours
Experimental: Parallel artificial membrane permeability assay (PAMPA) permeability data is a useful tool to predict passive permeability through biological lipid membranes. […] Passive permeability (>0.1 and <10×10^−6 cm/s) may still give good absorption properties.
All Test compounds were formulated in DMSO to 20 mM. Final concentration of all compounds in the assay was 200 μM with final DMSO concentration of 1%. The following reference controls were used: Antipyrine, Carbamazepine, Propranolol, Ranitidine and Ketoprofen.
The solutions were filtered and 150 μL transferred to a High Sensitivity 96 well UV plate. This was analysed by UV as the reference plate. A 200 μL sample of the 200 μM solution was transferred to the ‘donor’ plate of the PAMPA plon sandwich plate system. […] Donor and acceptor plates were sandwiched and kept in a humid environment at room temperature for 16 hours. On completion of the incubation the donor and acceptor plates were separated. 150 μL of solution was transferred from each of the donor and acceptor PAMPA sandwich plates into High Sensitivity 96 well UV plates for analysis by UV. Passive permeability (Pe 10^−6 cm/second) was determined for each compound tested. Control compounds were compared with historic and literature values to ensure assay functionality.

[4] = test system: Cryopreserved hepatocytes (human); experiment: Hepatic stability (cryopreserved hepatocytes); type: in vitro ADME; conditions: 1 μM
Experimental: Cryopreserved hepatocytes (human) were obtained from Bioreclamation.
Test compounds and reference controls (raloxifene, diclofenac, terenadine, propranolol, dextromethorphan and metoprolol) were dissolved in a 100 μM stock was prepared by diluting 5 μL of 4 mM (DMSO) in 195 μL of 50:50 DMSO:hepatocyte buffer. Final test compound concentration in incubation was 1 μM.
The hepatocyte buffer was prepared (Williams E media containing phenol red and Glutamax™, 15 mM HEPES, warmed to 37° C., pH7.4 with NaOH). Hepatocyte cells (all main species) were removed from liquid nitrogen, thawed in a waterbath, decanted into 50 mL of pre-warmed Cryopreserved Hepatocyte Recovery Media (LifeTechnologies) and centrifuged. Supernatant fraction was removed, cells were re-suspended in hepatocyte buffer and counted by trypan blue exclusion. Cell viability of >80% was required for all assays.
2 μL of 100 μM compound stock solution was added to relevant wells to initiate the incubation. A no cell control and two replicates of each test compound was included in every assay. Cells were incubated at 37° C., on a shaker set at 300 rpm. […] Samples were diluted 1:1 with water using the Janus Robot and analysed by LC-MS/MS.

Row | Compound | efflux ratio at 2 h, 10 μM [1] | Papp B→A at 2 h, 10 μM [1] | logD [2] | Human Microsome CIint (Microsomal stability) | PAMPA Pe (pH 5.0) ([3]; pH 5.0) | PAMPA Pe (pH 6.2) ([3]; pH 6.2) | PAMPA Pe (pH 7.4) ([3]; pH 7.4) | Human Hepatocyte CIint [4]
1 | CC(C)(C#N)NC(=O)c1cc(NC(=O)Cc2ccc(C(C)(C)C)c(O)c2)ccn1 [93.4 of PCT/GB2019/050209, reference compound] | – | – | > 4.1 | 32.8 µL/min/mg | 30.9 ×10^−4 cm/s | 38.4 ×10^−4 cm/s | 36.4 ×10^−4 cm/s | 24.1 μL/min/million cells
2 | CCC(C)(O)c1cc(F)c(CC(=O)Nc2ccnc(C(=O)NC3(C(F)(F)F)CC3)c2)cc1O (centres unmarked) [Example 2.11, 4-[[2-[2-Fluoro-5-hydroxy-4-(1-hydroxy-1-methyl-propyl)phenyl]acetyl]amino]-N-[1-(trifluoromethyl)cyclopropyl]pyridine-2-carboxamide] | 1 | – | 3.6 | – | – | – | – | –
3 | CC(C#N)NC(=O)c1cc(NC(=O)Cc2cc(O)c(C(C)(C)C)cc2F)ccn1 (centres unmarked) [Example 1.3] | 0.9 | 2.5 ×10⁻⁶ cm/s | 3.9 | – | – | – | – | –
4 | CC(C)(O)c1cc(F)c(CC(=O)Nc2ccnc(C(=O)NC3(C(F)(F)F)CC3)c2)cc1O [Example 2, 4-[[2-[2-Fluoro-5-hydroxy-4-(1-hydroxy-1-methyl-ethyl)phenyl]acetyl]amino]-N-[1-(trifluoromethyl)cyclopropyl]pyridine-2-carboxamide] | 1.8 | 5.7 ×10⁻⁶ cm/s | 3.1 | – | – | – | – | –
5 | CC(C)(CO)c1cc(F)c(CC(=O)Nc2ccnc(C(=O)NC3(C(F)(F)F)CC3)c2)cc1O [Example 2.6, 4-[[2-[2-Fluoro-5-hydroxy-4-(2-hydroxy-1,1-dimethyl-ethyl)phenyl]acetyl]amino]-N-[1-(trifluoromethyl)cyclopropyl]pyridine-2-carboxamide] | 2.4 | 5.3 ×10⁻⁶ cm/s | 3.2 | – | – | – | – | –
6 | CC(C)(C)NC(=O)c1cc(NC(=O)Cc2cc(O)c(C(C)(C)C)cc2F)ccn1 [91 of PCT/GB2019/050209, reference compound] | – | – | > 4.5 | 51.0 µL/min/mg | – | – | – | 15.6 μL/min/million cells

Further lines, results first:

Row | efflux ratio at 2 h, 10 μM [1] | Papp B→A at 2 h, 10 μM [1] | logD [2] | Human Microsome CIint (Microsomal stability) | PAMPA Pe (pH 5.0) ([3]; pH 5.0) | PAMPA Pe (pH 6.2) ([3]; pH 6.2) | PAMPA Pe (pH 7.4) ([3]; pH 7.4) | Human Hepatocyte CIint [4] | Compound
7 | 2.3 | 5.5 ×10⁻⁶ cm/s | 3.7 | – | – | – | – | – | CC(C)(CCO)c1cc(F)c(CC(=O)Nc2ccnc(C(=O)NC3(C(F)(F)F)CC3)c2)cc1O [Example 11, 4-[[2-[2-Fluoro-5-hydroxy-4-(3-hydroxy-1,1-dimethyl-propyl)phenyl]acetyl]amino]-N-[1-(trifluoromethyl)cyclopropyl]pyridine-2-carboxamide]
8 | 2.6 | 6.1 ×10⁻⁶ cm/s | 3.3 | – | – | – | – | – | O=C(Cc1cc(O)c(C2(CO)CCC2)cc1F)Nc1ccnc(C(=O)NC2(C(F)(F)F)CC2)c1 [Example 2.13, 4-[[2-[2-Fluoro-5-hydroxy-4-[1-(hydroxymethyl)cyclobutyl]phenyl]acetyl]amino]-N-[1-(trifluoromethyl)cyclopropyl]pyridine-2-carboxamide]
9 | 2.8 | 4.9 ×10⁻⁶ cm/s | 3.9 | – | – | – | – | – | CC(C)(CO)c1cc(Cl)c(CC(=O)Nc2ccnc(C(=O)NC3(C(F)(F)F)CC3)c2)cc1O [Example 14, 4-[[2-[2-Chloro-5-hydroxy-4-(2-hydroxy-1,1-dimethyl-ethyl)phenyl]acetyl]amino]-N-[1-(trifluoromethyl)cyclopropyl]pyridine-2-carboxamide]
10 | 20.7 | 7.8 ×10⁻⁶ cm/s | 3.3 | – | – | – | – | – | O=C(Cc1cc(O)c(C(CO)C(F)(F)F)cc1F)Nc1ccnc(C(=O)NC2(C(F)(F)F)CC2)c1 (centres unmarked) [Example 17, 4-[[2-[2-Fluoro-5-hydroxy-4-[2,2,2-trifluoro-1-(hydroxymethyl)ethyl]phenyl]acetyl]amino]N-[1-(trifluoromethyl)cyclopropyl]pyridine-2-carboxamide]
11 | 19.8 | 7.2 ×10⁻⁶ cm/s | 3.4 | – | – | – | – | – | CC(C)(CO)c1cc(Cl)c(CC(=O)Nc2ccnc(C(=O)NC3(C(F)F)CC3)c2)cc1O [Example 15.3, 4-[[2-[2-Chloro-5-hydroxy-4-(2-hydroxy-1,1-dimethyl-ethyl)phenyl]acetyl]amino]-N-[1-(difluoromethyl)cyclopropyl]pyridine-2-carboxamide]
12 | 2.8 | 6 ×10⁻⁶ cm/s | 3.4 | – | – | – | – | – | Cc1cc(C(C)(C)CO)c(O)cc1CC(=O)Nc1ccnc(C(=O)NC2(C(F)(F)F)CC2)c1 [Example 14.1, 4-[[2-[5-Hydroxy-4-(2-hydroxy-1,1-dimethyl-ethyl)-2-methyl-phenyl]acetyl]amino]-N-[1-(trifluoromethyl)cyclopropyl]pyridine-2-carboxamide]
